Test results published in patent publication US8258306B2, “Glycine transporter-1 inhibitors” (Amgen Inc., priority 2007, dated 2012).
Structures can show the parent of a compound that is named as a salt.

Target: T1, human glycine transporter type 1 (Gly-T1) (Homo sapiens, UniProt P48067)
T1 construct: JAR) cells endogenously expressing human glycine transporter type 1 (Gly-T1); endogenous in cells; host or cells: JAR human placental choriocarcinoma cells
T1 sequence (P48067 1-706): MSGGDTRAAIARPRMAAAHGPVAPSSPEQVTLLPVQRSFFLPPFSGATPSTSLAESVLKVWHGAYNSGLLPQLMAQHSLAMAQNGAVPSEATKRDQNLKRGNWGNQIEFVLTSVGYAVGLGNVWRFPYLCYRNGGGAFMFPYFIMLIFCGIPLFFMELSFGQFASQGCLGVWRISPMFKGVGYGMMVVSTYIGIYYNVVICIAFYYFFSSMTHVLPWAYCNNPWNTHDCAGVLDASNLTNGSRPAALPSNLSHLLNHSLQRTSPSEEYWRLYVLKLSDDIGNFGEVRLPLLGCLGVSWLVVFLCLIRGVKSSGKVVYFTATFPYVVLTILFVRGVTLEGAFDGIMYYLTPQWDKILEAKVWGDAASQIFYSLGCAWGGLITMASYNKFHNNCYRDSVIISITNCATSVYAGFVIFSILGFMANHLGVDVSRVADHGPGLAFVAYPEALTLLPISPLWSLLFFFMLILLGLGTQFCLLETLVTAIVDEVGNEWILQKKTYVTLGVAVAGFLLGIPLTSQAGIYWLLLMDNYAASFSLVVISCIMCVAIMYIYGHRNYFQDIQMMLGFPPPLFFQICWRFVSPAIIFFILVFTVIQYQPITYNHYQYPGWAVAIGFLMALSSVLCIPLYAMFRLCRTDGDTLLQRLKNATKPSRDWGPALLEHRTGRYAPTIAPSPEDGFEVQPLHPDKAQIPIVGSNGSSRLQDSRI
Experiment: Glycine Transporter 1 (GlyT1) Uptake Assay, in vitro
Type: cell-based
Conditions: inhibition of [14C] glycine uptake (5 μM) in JAR cells endogenously expressing GlyT1; approximate values
Method: This cell-based assay measures the ability of test compounds to inhibit the uptake of glycine by the glycine transporter type 1. Human placental choriocarcinoma (JAR) cells endogenously expressing human glycine transporter type 1 (Gly-T1) were used for this assay. For uptake assays, JAR cells were cultured in 96-well cytostar T scintillating microplates (Amersham Biosciences) in RPMI 1640 medium containing 10% fetal bovine serum in the presence of penicillin (100 μg/ml) and streptomycin (100 μg/ml). Cells were plated at a density of 4×10^4 cells/well and grown at 37° C. in a humidified atmosphere of 5% CO2 for 24 h.
Culture medium was removed from Cytostar plate and JAR cells were incubated with 30 μl of Uptake buffer (120 mM NaCl, 2 mM KCl, 1 mM CaCl2, 1 mM MgCl2, 10 mM Hepes, 5 mM alanine, pH 7.5) with or without compound for 5 min. Then 30 μl of [^14C] glycine (101 mCi/mmol, obtained from Perkin Elmer) diluted in Uptake buffer was added to each well to give a final concentration of 5 μM. After incubation at room temperature for the desired time usually 1-2 h, sealed 96-well Cytostar plates were counted on a TopCount (Packard). Nonspecific uptake of [^14C] glycine was determined in the presence of 10 μM cold ALX-5407 (Sigma).
IC50 curves were generated from the raw data collected from the TopCount and fitted with a four-parameter logistic equation using in-house data analysis tool, Activity Base.

Q: Which IC50 does the source give for C[C@@H]1CN(C2(c3ccccc3)CCCCC2)CCN1CC(=O)O [Cpd I-14, (R)-2-(2-methyl-4-(1-phenyl-cyclohexyl)-piperazin-1-yl)acetic acid] here?
A: 1530 nM

Q: Which IC50 does the source give for C[C@@H]1CN(C2CCc3ccc(Br)cc32)CCN1CC(=O)O (stereo partly drawn) [Cpd I-3, 2-((R)-4-(6-bromo-2,3-dihydro-1H-inden-1-yl)-2-methyl-piperazin-1-yl)acetic acid] here?
A: 1010 nM

Q: Which IC50 does the source give for O=C(O)CN1CCC(C2c3ccccc3-c3ccccc32)CC1 [Cpd I-28, 2-(4-(9H-fluoren-9-yl)piperidin-1-yl)acetic acid] here?
A: > 10000 nM

Q: Which IC50 does the source give for C[C@@H]1CN(C2CCCCC2c2ccccc2)CCN1CC(=O)O (stereo partly drawn) [Cpd I-6, 2-((R)-2-methyl-4-(2-phenylcyclohexyl)-piperazin-1-yl)acetic acid dihydrochloride] here?
A: 1130 nM

Q: How did the IC50 turn out when O=C(O)CN1CCC(N(c2ccccc2)c2cccc(-c3cccnc3)c2)C1 (centres unmarked) [Cpd II-10, 2-(3-(phenyl(3-(pyridin-3-yl)-phenyl)amino)pyrrolidin-1-yl)acetic acid] was run?
A: 14 nM

Q: How did the IC50 turn out when O=C(O)CN1CCN(c2cccc3ccccc23)CC1 [Cpd I-9, 2-(4-naphth-1-ylpiperazin-1-yl)acetic acid] was run?
A: > 10000 nM

Q: How did the IC50 turn out when CC1CC(C(c2ccccc2)c2ccccc2)CCN1CC(=O)O (centres unmarked) [Cpd I-15, 2-(4-benzhydryl-2-methyl-piperidin-1-yl)acetic acid] was run?
A: 52 nM

Q: Which IC50 does the source give for O=C(O)CN1CCN(c2c3ccccc3cc3ccccc23)CC1 [Cpd I-11, 2-(4-anthracen-9-ylpiperazin-1-yl)acetic acid] here?
A: > 10000 nM

Q: O=C(O)CN1CCC(C(c2ccccc2)c2ccccc2)CC1 [Cpd I-8, 2-(4-benzhydrylpiperidin-1-yl)acetic acid] was tested. Which IC50 did it give?
A: 536 nM

Q: How did the IC50 turn out when C[C@@H]1CN(C2(c3ccc(Cl)cc3)CCCCC2)CCN1CC(=O)O [Cpd I-26, (R)-2-(4-(1-(4-chlorophenyl)cyclohexyl)-2-methylpiperazin-1-yl)acetic acid] was run?
A: 101 nM

Q: C[C@@H]1CN(c2c3ccccc3cc3ccccc23)CCN1CC(=O)O [Cpd I-12, (R)-2-(4-anthracen-9-yl-2-methyl-piperazin-1-yl)acetic acid] was tested. Which IC50 did it give?
A: 687 nM

Q: O=C(O)CN1CCC(C2c3ccccc3Oc3ccccc32)CC1 [Cpd I-30, 2-(4-(9H-xanthen-9-yl)piperidin-1-yl)acetic acid] was tested. Which IC50 did it give?
A: 5320 nM

Q: Which IC50 does the source give for O=C(O)CN1CCC(N(c2ccccc2)c2cccc(C(F)(F)F)c2)CC1 [Cpd I-7, 2-(4-(phenyl(3-(trifluoromethyl)-phenyl)amino)piperidin-1-yl)-acetic acid] here?
A: 393 nM

Q: O=C(O)CN1CCN(C2(c3ccccc3)CCCCC2)CC1 [Cpd I-13, 2-(4-(1-phenylcyclohexyl)piperazin-1-yl)acetic acid] was tested. Which IC50 did it give?
A: > 10000 nM

Q: With O=C(O)CN1CCCC(N(c2ccccc2)c2ccc(C(F)(F)F)cc2)C1 (centres unmarked) [Cpd II-3, 2-(3-(phenyl(4-(trifluoromethyl)-phenyl)amino)piperidin-1-yl)acetic acid] as the compound, how does the IC50 read?
A: 296 nM

Q: For O=C(O)CN1CCC(N(c2ccccc2)c2ccc(C(F)(F)F)cc2)C1 (centres unmarked) [Cpd II-5, 2-(3-(phenyl(4-(trifluoromethyl)-phenyl)amino)pyrrolidin-1-yl)acetic acid], which IC50 is on record?
A: 18 nM

Q: With C[C@@H]1CN(C2CCCCc3ccccc32)CCN1CC(=O)O (stereo partly drawn) [Cpd I-1, 2-((R)-2-methyl-4-(6,7,8,9-tetrahydro-5H-benzo[7]annulen-5-yl)-piperazin-1-yl)acetic acid] as the compound, how does the IC50 read?
A: 258 nM

Q: O=C(O)CN1CCC(N(c2ccccc2)c2ccc(C(F)(F)F)cc2)CC1 [Cpd I-22, 2-(4-(phenyl(4-(trifluoromethyl)phenyl)-amino)piperidin-1-yl)acetic acid] was tested. Which IC50 did it give?
A: 129 nM

Q: How did the IC50 turn out when C[C@@H]1CN(c2cccc3ccccc23)CCN1CC(=O)O [Cpd I-10, (R)-2-(2-methyl-4-naphth-1-ylpiperazin-1-yl)acetic acid] was run?
A: 953 nM

Q: With O=C(O)CN1CCCC(N(c2ccccc2)c2cccc(C(F)(F)F)c2)C1 (centres unmarked) [Cpd II-4, 2-(3-(phenyl(3-(trifluoromethyl)-phenyl)amino)piperidin-1-yl)acetic acid] as the compound, how does the IC50 read?
A: > 2000 nM

Q: How did the IC50 turn out when O=C(O)CN1CCCC(C(c2ccccc2)c2ccc(C(F)(F)F)cc2)C1 (centres unmarked) [Cpd II-1, 2-(3-(phenyl(4-(trifluoromethyl)-phenyl)methyl)piperidin-1-yl)acetic acid] was run?
A: 562 nM

Q: O=C(O)CN1CCC(C(c2ccccc2)c2ccccc2C(F)(F)F)CC1 (centres unmarked) [Cpd I-16, 2-(4-(phenyl(2-(trifluoromethyl)-phenyl)-methyl)piperidin-1-yl)acetic acid] was tested. Which IC50 did it give?
A: 3520 nM

Q: Which IC50 does the source give for C[C@@H]1CN(C2c3ccccc3CCc3ccccc32)CCN1CC(=O)O [Cpd I-5] here?
A: 147 nM
